Series [1] is described as follows: Solubility in water at 1 mg/ml. Particulars: buffer. Type of series: physicochemical.
The next series concerns the target Stromelysin-1 (Homo sapiens, UniProt P08254). In words: Inhibition of human MMP3 catalytic subunit by fluorometric analysis.
Series [2] is described as follows: Cytotoxicity against mouse BALB/3T3 cells clone A31 incubated for 24 hrs by Alamar blue assay. Particulars: BALB/3T3 clone A31, 24 h. It is filed as cell-based.
Series [3] deals with Cartilage tissue. In words: Antiinflammatory activity against bovine normal hyaline femoral condyles cartilage assessed as reduction in IL-1beta/OSM-induced collagen release at 6 to 127 uM incubated for 21 days with media replenishment for every 7 days relative to control. Type of series: functional, tissue-based. Conditions: Bos taurus, dose 6-127 µM, time 21.0 day.
Series [4] deals with Cartilage tissue. In words: Antiinflammatory activity against bovine normal hyaline femoral condyles cartilage assessed as reduction in IL-1beta/OSM-induced collagen release at 93 uM incubated for 21 days with media replenishment for every 7 days relative to control. It is filed as functional, tissue-based. Conditions: Bos taurus, time 21.0 day.

Calls of active or inactive are those of the source. The calls are words filed in the database; no cut-off is given here. Residues, ends and D or L forms follow the SMILES beside them.

Chain of Stromelysin-1 (P08254 whole entry): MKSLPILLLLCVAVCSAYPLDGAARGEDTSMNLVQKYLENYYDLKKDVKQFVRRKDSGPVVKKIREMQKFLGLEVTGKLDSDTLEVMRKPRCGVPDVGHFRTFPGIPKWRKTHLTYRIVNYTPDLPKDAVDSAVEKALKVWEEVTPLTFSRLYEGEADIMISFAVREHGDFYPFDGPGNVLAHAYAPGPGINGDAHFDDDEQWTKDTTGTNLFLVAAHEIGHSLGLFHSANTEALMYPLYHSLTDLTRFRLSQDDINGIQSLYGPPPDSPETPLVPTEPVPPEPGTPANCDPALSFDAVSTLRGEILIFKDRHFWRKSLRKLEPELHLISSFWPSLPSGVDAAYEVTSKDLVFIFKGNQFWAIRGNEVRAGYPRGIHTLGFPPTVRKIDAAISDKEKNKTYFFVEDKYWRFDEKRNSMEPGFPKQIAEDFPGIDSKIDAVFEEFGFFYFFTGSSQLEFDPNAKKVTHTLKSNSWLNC

Consider `CCCCCCCCC/C=C/CCCCCCCC(=O)N[C@@H](CS)C(=O)NCC(=O)N[C@@H](CCCNC(=N)N)C(=O)O`, for which, in series [1], the solubility result is recorded as “Insoluble”. The compound also yielded an IC50 against Stromelysin-1 of more than 50 µM.
With `CC(=O)N[C@@H](CCCNC(=N)N)C(=O)N[C@@H](CS)C(=O)NCC(N)=O` (Ac-Arg-Cys-Gly-NH2), the solubility entry in series [1] is given as “Soluble”. This compound also had an IC50 against Stromelysin-1 of 95.3 µM.
For `CC(=O)N[C@@H](CS)C(=O)NCC(=O)N[C@@H](CCCNC(=N)N)C(=O)N[C@@H](CCCCN)C(=O)O` (Ac-CGRK-OH), the solubility entry in series [1] was “Soluble”. On Stromelysin-1, this compound yielded an IC50 of more than 50 µM.
The like results for `CC(=O)N[C@@H](CS)C(=O)NCC(=O)N[C@@H](CCCNC(=N)N)C(=O)O` (Ac-Cys-Gly-Arg-OH) were, in that order, “Insoluble” and 850 µM.
As for `CC(=O)N[C@@H](CCCNC(=N)N)C(=O)N[C@@H](CS)C(=O)NCC(=O)N[C@H](C(N)=O)C(C)C` (Ac-RCGV-NH2), the solubility result in series [1] is on record as “Soluble”. Further, the half-maximal inhibitory concentration (IC50) at Stromelysin-1 was 10.2 µM; in series [2] it was 253 µM. Also, the outcome in the series with Cartilage tissue [3] was Active.
For `CC(C)[C@H](NC(=O)CNC(=O)[C@H](CS)NC(=O)[C@@H](N)CCCNC(=N)N)C(N)=O` (H-RCGV-NH2), in series [1], the solubility result is on record as “Soluble”. Further, at Stromelysin-1, the IC50 was determined as 173 µM.
The like results for `CCCCCCCCNC(=O)C[C@H](NC(=O)CNC(=O)[C@H](CS)NC(=O)[C@@H](N)CCCNC(=N)N)C(N)=O` (HELM PEPTIDE1{R.C.G.D.[am]}|CHEM1{[CCCCCCCCN[*:1]]}$PEPTIDE1,CHEM1,4:R3-1:R1$$$V2.0) were, in that order, “Insoluble” and more than 200 µM.
Consider `CCCCCCCC(=O)N[C@@H](CS)C(=O)NCC(=O)N[C@@H](CCCNC(=N)N)C(=O)O` (HELM PEPTIDE1{[CCCCCCCC(=O)[*:2]].C.G.R}$$$$V2.0), for which the solubility result in series [1] is reported as “Insoluble”. For the same compound, the IC50 against Stromelysin-1 was found to be 4.4 µM.
Regarding `CCCCCCCCCCCC(=O)N[C@@H](CS)C(=O)NCC(=O)N[C@@H](CCCNC(=N)N)C(=O)N[C@@H](CCCCN)C(=O)O` (HELM PEPTIDE1{[CCCCCCCCCCCC(=O)[*:2]].C.G.R.K}$$$$V2.0), in series [1], the solubility entry was “Soluble”. Moreover, the results for the IC50 (against Stromelysin-1; in series [2]) were 3.2 µM and 186 µM, respectively. The result in the series with Cartilage tissue [4] was Active.
Take `CCCCCCCCCCCC(=O)N[C@@H](CS)C(=O)NCC(=O)N[C@@H](CCCNC(=N)N)C(=O)O` (HELM PEPTIDE1{[CCCCCCCCCCCC(=O)[*:2]].C.G.R}$$$$V2.0): in series [1], the solubility result is recorded as “Insoluble”. The IC50 at Stromelysin-1 is 7 µM.
Regarding `CCCCCCCCNC(=O)C[C@H](NC(=O)CNC(=O)[C@H](CS)NC(=O)[C@H](CCCNC(=N)N)NC(C)=O)C(N)=O` (HELM PEPTIDE1{[ac].R.C.G.D.[am]}|CHEM1{[CCCCCCCCN[*:1]]}$PEPTIDE1,CHEM1,5:R3-1:R1$$$V2.0), the solubility result in series [1] was “Soluble”. On Stromelysin-1, this compound came in with a half-inhibitory concentration (IC50) of 61.4 µM.
Consider `CCCC[C@H](NC(=O)CNC(=O)[C@H](CS)NC(=O)[C@H](CCCNC(=N)N)NC(C)=O)C(N)=O` (HELM PEPTIDE1{[ac].R.C.G.[Nle].[am]}$$$$V2.0), for which the solubility result in series [1] is recorded as “Soluble”. Moreover, 79.5 µM corresponded to half-maximal inhibition against Stromelysin-1 (IC50).
